Measured values taken from US7067523B2, “Use of pyrone carboxylates for controlling pests” (Sumitomo Chemical Company, Limited, priority 2002, dated 2006).

Tested on: Blattela germanica
Test: Topical application to adult female Blattela germanica, mortality after 7 days
Format: in vivo
Details: 1 μl of 20 μg/μl acetone solution applied to ventral thorax of adult female, 10 insects per group, triplicate
Protocol: 1 μl of a 20 μg/μl acetone solutions of each of the present compounds No. 1 and the control compound was applied onto the surface of the ventral region of the thorax of adult female Blattela germanica. These insects were kept with a feed (solid feed for rat, Oriental Yeast, Co., Ltd.) and water for 7 days. Subsequently, the insects were examined for death to obtain mortality (10 insects per group, triplicate).
In a similar manner to the Experiment example 1, using a 20 μg/μl acetone solution of each of the present compounds Nos. 2, 3, 4, 5, 6, 7, 10, 11, 13, 14, 15, 16 and 18 instead of the present compound No. 1 and the control compound, the experiment was carried out to obtain mortality of the cockroach.
In a similar manner to the Experiment example 1, using a 2.5 μg/μl acetone solution of each of the present compounds Nos. 5 and 6 instead of the present compound No. 1 and the control compound, the experiment was carried out to obtain mortality of the cockroach.

Structure (SMILES)	mortality [%]
CCOC(=O)c1c(O)cc(C)oc1=O [Compound No. 1, ethyl 4-hydroxy-6-methyl-2-oxo-2H-pyrane-3-carboxylate]	100
CCC(=O)c1c(O)cc(C)oc1=O [control compound, 4-hydroxy-6-methyl-3-propanoyl-2-pyrone]	30
